# Measured values from patent publication US20200383985A1, “Inhibitors of Protease Activated Receptor-2” (Endosome Therapeutics, Inc., priority 2017, published 2020).
# Key:
# colonic afferent neurons = test: Colonic afferent recordings, healthy mice; set-up: species or system mouse; details: for basal mechanical sensitivity of colonic afferents / trypsin-induced sensitization of mechanical responses: I-343 10 μM, PS2 or PS2 inact 50 μM; for amplification of frequency of firing to mechanical stimulation: healthy mice, 2 g filament, trypsin 10 nM, NE 100 nM, CS 100 nM, 10 min
# Text: To examine whether proteases cleave PAR2 on the peripheral terminals of colonic nociceptors to induce mechanical hypersensitivity, single unit recordings from afferent neurons innervating the mouse colon were made. Receptive fields were identified by mechanical stimulation of the mucosal surface with von Frey filaments, proteases were applied to the mucosal receptive fields, and mechanical responses were re-evaluated to assess sensitization. Under basal conditions, repeated mechanical stimulation (2 g filament) induced reproducible firing (FIG. 9A). […] The results support the hypothesis that PAR2 endocytosis is required trypsin-induced sensitization of colonic afferent neurons. The colon and rectum (5-6 cm) was removed from C57BL/6 mice. Afferent recordings were made from splanchnic nerves as described (Hughes, P. A. et al., Gut 2009, 58(10): 1333-134; Brierley, S. M. et al., Gastroenterology 2004, 127(1): 166-178). Briefly, the intestine was opened and pinned flat, mucosal side up, in an organ bath. […] The splanchnic nerve was extended into a paraffin-filled recording compartment, in which finely dissected strands were laid onto a platinum electrode for single-unit extracellular recordings of action potentials generated by mechanical stimulation of receptive fields in the colon. Receptive fields were identified by mechanical stimulation of the mucosal surface with a brush of sufficient stiffness to activate all types of mechanosensitive afferents. […] These neurons express an array of channels and receptors involved in pain, become mechanically hypersensitive in models of chronic visceral pain, and have a nociceptor phenotype. They are therefore referred to as “colonic nociceptors”. […] Proteases were applied to a metal cylinder placed over the receptive mucosal field of interest. […] Action potentials were analyzed using the Spike 2 […] function and discriminated as single units on the basis of distinguishable waveform, amplitude and duration.
# mice = test: Somatic mechanical nociception, von Frey filaments after intraplantar injection; format: in vivo, mouse; details: for NE- and CS-induced allodynia / trypsin-induced mechanical allodynia: inhibitor 50 μM, 10 μl intraplantar; for NE- and CS-induced allodynia: 30 min before NE (1.2 μM) or CS (2.5 μM); for trypsin-induced mechanical allodynia: 30 min before trypsin (10 nM), at 1 and 2 h; for mechanical allodynia after intraplantar protease: WT mice, 10 μl trypsin (80 nM), NE (3.9 μM) or CS (5 μM), within 30 min, maintained for 180 min
# Protocol: After 30 min, trypsin (10 nM), NE (1.2 μM), or CS (2.5 μM) (10 μl) was injected into the same paw.
# Mice were acclimatized to the experimental apparatus, room and investigator for 1-2 h on 2 successive days before studies. Investigators were blinded to the test agents. Mice were sedated (5% isoflurane) for intraplantar injections. Dy4a, Dy4 inact, PS2, PS2 inact (all 50 μM) or vehicle (0.2% DMSO in 0.9% NaCl) (10 μl) was injected into the left hindpaw. After 30 min, trypsin (10 or 80 nM), CS (2.5 or 5 μM) or NE (1.2 or 3.9 μM) (all 10 μl) was injected into the same hindpaw. Mechanical nociceptive responses were evaluated by examining paw withdrawal to stimulation of the plantar surface of the hind-paw with calibrated von Frey filaments. von Frey scores were measured in triplicate to establish a baseline for each animal on the day before experiments, and were then measured for up to 4 h after protease administration. To assess edema, paw thickness was measured at the site of injection between the plantar and the dorsal surfaces of the paw using digital calipers. For evaluation of neutrophil infiltration, paws were collected at 4 h after intraplantar injection of trypsin (10 μl, 80 nM) or vehicle, fixed in 10% neutral buffered formalin for 48-72 h, bisected, and fixed in formalin for an additional 12 h. Tissue was decalcified in 10% 0.5 M EDTA for 6 days, washed in water, transferred to 70% ethanol for 24 h, and embedded in paraffin. Sections (5 μm) were incubated with neutrophil antibody Ly6G/6C clone NIMP-R14 (Abcam #ab2557, Lot #GR135037-1, AB_303154, 1:800, room temperature, 12 h). Sections were processed for chromogenic immunohistochemistry on a Ventana Medical Systems Discovery XT platform with online deparaffinization using Ventana's reagents. Ly6G/Ly6c was enzymatically treated with protease-3 (Ventana Medical Systems) for 8 min. Ly6G/Ly6c was detected with goat anti-rat horseradish peroxidase conjugated multimer incubated for 16 min.
Compound,basal mechanical sensitivity of colonic afferents (colonic afferent neurons),trypsin-induced sensitization of mechanical responses (colonic afferent neurons),NE- and CS-induced allodynia (mice),trypsin-induced mechanical allodynia (mice),mechanical allodynia after intraplantar protease (mice),amplification of frequency of firing to mechanical stimulation (colonic afferent neurons) [%]
"Cc1nc(C(=O)N2CCN(C(=O)c3cn4nc(-c5ccc(F)cc5)cc(C(C)(C)C)c4n3)C(C)(C)C2)n[nH]1 [Compound I-343, (8-(tert-butyl)-6-(4-fluorophenyl)imidazo[1,2-b]pyridazin-2-yl)(2,2-dimethyl-4-(5-methyl-1H-1,2,4-triazole-3-carbonyl)piperazin-1-yl)methanone]",did not affect,abolished,–,–,–,–
O=C(N/N=C/c1cc(O)c(O)cc1O)c1cc2ccccc2cc1O [Dy4],–,–,unchanged or minimally affected,inhibited,–,–
O=C1NC(=NS(=O)(=O)c2cccc3ccccc23)S/C1=C\c1ccc(Br)cc1 [PS2],did not affect,abolished,unchanged or minimally affected,inhibited,–,–
NE: protease (elastase) activating PAR2 by biased mechanisms,–,–,–,–,induced mechanical allodynia,41.0±11.8
trypsin,–,–,–,–,induced mechanical allodynia,35.8±5.9
